Measured values published in patent US7332615B2, “Hydrophilic analogs of 4,8-dihydrobenzodithiophene-4,8-diones as anticancer agents” (Industrial Technology Research Institute, priority 2004, dated 2008).
Structures can show the parent of a compound that is named as a salt. Where two headings read alike, the source gives them in different places.

Tests used:
[1] = tested on: epidermoid carcinoma of the nasopharynx (KB); experiment: Cytotoxicity Assays Method C, KB; format: cell-based; details: read-out: IC50 KB
[2] = tested on: NCI-H460; experiment: Cytotoxicity Assays Method A (alamarBlue anti-proliferative assay), NCI-H460; format: cell-based; details: for IC50 / CC50: Homo sapiens; for IC50: NCI-H460, 72 h, read-out: IC50 (50% Inhibition Concentration); for CC50 / TGI (Total growth Inhibition): NCI-H460, 72-hour incubation, alamarBlue; for CC50: read-out: LC50 (50% Lethal Concentration)
From the text: (§1) Cytotoxicity Assays Method A (HUVEC, MCF-7, HT-29, Hep 3B and NCl-H460) [S. A. Ahmed, R. M. Gogal Jr., and J. E. Walsh, Journal of Immunological Methods 170: 211-224, (1994): M. R. Boyd, Status of the NCl preclinical antitumor drug discovery screen. (Published by J. B. Lippincoft Company, Philadelphia, Pa. 19105, USA) Principles & Practices of Oncology Updates 3 # 10: 1-12, (1989); M. R. Boyd, et al. Data display and analysis strategies for the NCl disease-oriented in vitro antitumor drug screen. In: Cytotoxic anti-cancer drugs: models and concepts for drug discovery and development. Boston: Kluwer Academic, Pages; 11-34, (1992)]
(§2) The test compounds were dissolved in 100% DMSO and then diluted with sterile distilled water to obtain initial working solutions of 20000, 2000, 200, 20 and 2 μM in 80% DMSO. A 200 fold dilution was further made in culture media to generate final assay concentrations of 100, 10, 1, 0.1 and 0.01 μM in 0.4% DMSO.
(§3) Aliquots of 100 μl of cell suspension (about 1.5-3.0×10^3/well) were placed in 96-well microtiter plates in an atmosphere of 5% CO2 at 37° C. After 24 hours, 100 μl of growth medium and 1 μl of test solution or vehicle (80% DMSO) were added respectively per well in duplicate for an additional 72-hour incubation. Thus, the final concentration of DMSO was 0.4%. The test compounds, IIa-1, IIb-1 and VII-1 were evaluated at concentrations of 100, 10, 1, 0.1 and 0.01 μM. At the end of incubation, 20 μl of alamarBlue 90% reagent was added to each well for another 6-hour incubation before detection of cell viability by fluorescent intensity. Fluorescent intensity was measured using a Spectraflour Plus plate reader with excitation at 530 nm and emission at 590 nm.
(§4) The measured results was calculated by the following formula: PG(%)=100×(Mean Ftest−Mean Ftime0)/(Mean Fctrl−Mean Ftime0)] If(Mean Ftest−Mean Ftime0)<0, then PG(%)=100×(Mean Ftest−Mean Ftime0)/(Mean Ftime0−Mean Fblank) wherein PG represents percent growth;
(§5) A decrease of 50% or more (≧50%) in fluorescent intensity relative to the vehicle-treated control indicates significant cytostatic or cytotoxic activity, and semi-quantitative values for IC50, TGI and LC50 were then determined by nonlinear regression using GraphPad Prism (GraphPad Software, USA).
(§6) IC50 (50% Inhibition Concentration); Test compound concentration where the increase from times in the number or mass of treated cells was only 50% as much as the corresponding increase in the vehicle-control at the end of experiment.
(§7) TGI (Total Growth Inhibition): Test compound concentration where the number or mass of treated cells at the end of experiment was equal to that at time0.
(§8) LC50 (50% Lethal Concentration): Test compound concentration where the number or mass of treated cells at the end of experiment was half that at time.
(§9) The assays were used to detect changes in cell proliferation based on the ability of viable cells to cause alamarBlue to change from its oxidized to a reduced form. With the results obtained from the alamarBlue reaction, cell proliferation can be quantified and metabolic activity of viable cell can be examined.
(§10) The succinate derivatives of compounds IIa-1, IIb-1 and VII-1 were tested for possible effect on the proliferation of four human tumor cell lines ˜MCF-7 (breast), HT-29 (colon), Hep3B (liver), and NCl—H 460 (lung) as well as one human umbilical vein endothelial cell (HUVEC) at assay concentration from 0.01 to 100 μM, through serial 10-fold dilution.

[3] = tested on: lung carcinoma (A-549); experiment: Cytotoxicity Assays Method C, A-549; format: cell-based; details: read-out: IC50 A549
[4] = Cytotoxicity Assays Method A (alamarBlue anti-proliferative assay), HUVEC; format: cell-based; details: human, HUVEC (human umbilical vein endothelial cells), 72-hour incubation, alamarBlue
From the text: as §1, §2, §3, §4, §5, §6, §7, §8, §9, §10

[5] = tested on: HUVEC; experiment: as above; format: cell-based; details: for TGI (Total growth Inhibition): 72-hour incubation, alamarBlue; for IC50: Homo sapiens, 72 h, read-out: IC50 (50% Inhibition Concentration)
From the text: as §1, §2, §3, §4, §5, §6, §7, §8, §9, §10

[6] = tested on: p-gp-expressing epidermoid carcinoma of the nasopharynx (KB-VIN); experiment: Cytotoxicity Assays Method C, KB-VIN; format: cell-based; details: for IC50: 50% reduction in cell number after 72 hr of incubation; for activity against the MDR cell line KB-VIN (in words): summary of Table 3
From the text: Cytotoxicity Assays Method C (KB, KB-VIN, AS49, HCT-8, PC-3) [K. H. Lee et. al. Planta Med. 54, 308-312 (1998), Monk A et. al. J. Natl. Cancer Inst. 83, 757-766 (1991).] The cell lines included epidermoid caninoma of the nasopharynx (KB), p-gp-expressing epidermoid caninoma of the nasopharynx (KB-VIN), lung carcinoma (A-549), ileocecal carinoma (HCT-8) and prostate cancer (PC-3) cell lines.

[7] = tested on: Hep 3B; experiment: Cytotoxicity Assays Method A (alamarBlue anti-proliferative assay), Hep 3B; format: cell-based; details: for cytotoxicity against Hep3B (in words): summary of Table 1; for TGI (Total growth Inhibition) / CC50: Hep-3B, 72-hour incubation, alamarBlue; for IC50 / CC50: Homo sapiens; for cytotoxicity against Hep3B (in words) / IC50 / CC50: Hep3B; for IC50: 72 h, read-out: IC50 (50% Inhibition Concentration); for CC50: read-out: LC50 (50% Lethal Concentration)
From the text: as §1, §2, §3, §4, §5, §6, §7, §8, §9, §10

[8] = tested on: HT-29; experiment: Cytotoxicity Assays Method A (alamarBlue anti-proliferative assay), HT-29; format: cell-based; details: for TGI (Total growth Inhibition) / LC50 (50% lethal concentration): HT-29, 72-hour incubation, alamarBlue; for IC50 / LC50 (50% lethal concentration): Homo sapiens; for IC50: HT-29, 72 h, read-out: IC50 (50% Inhibition Concentration)
From the text: as §1, §2, §3, §4, §5, §6, §7, §8, §9, §10

[9] = tested on: Human promyeloid leukemia HL-60 cells; experiment: Cytotoxicity Assays Method B (MTT proliferation assay), HL-60; format: cell-based; details: for IC50: Homo sapiens, read-out: IC50 (concentration at which 50% of the cells are inhibited from growing)
Method: Cytotoxicity Assays Method B (HL-60) [H. M. Chen et al. Chin. Pharm. J. 53, 157-167 (2001)]
Human promyeloid leukemia HL-60 cells were obtained from the American Type
Culture Collection (Manassas, Va., USA) and the Culture Collection and Research Center(CCRC) (Tai wan, ROC). Human promyeloid leukemia HL-60 cells were cultured in suspension in RPMI-1640 medium (GIBCO, Grand Is land, USA), containing 10% fetal bovine se rum (GIBCO, Grand Is land, USA), 100 unit/mL penicillin, […] streptomycin and 1% L-glutamine at 37° C. in a humidified atmosphere of 5% CO2 in air. Cells were split every day to maintain the cell numbers between 2−5×10^5/mL. Cell numbers were assessed by the standard procedure of leukocyte counting using a hemocytometer and cell viability was checked by the ability of cells to exclude Trypan blue.
Cellular proliferation was determined by the MTT [3-(4,5-dimethylthiazol-2-yl)-2,5-diphenyltetrazolium bromide] as say. Briefly, […] of MTT (5 mg/mL) was added to each well of 96-well plates containing 1×10^5 cells after treatment with different concentrations of samples for 4 days. The reaction was stopped after 2 h by adding […] of 0.04 N HCl in isopropanol and the OD570 nm was determined by a minicolorimetric reader. Each concentration treatment was performed in triplicate.

[10] = tested on: ileocecal carcinoma (HCT-8); experiment: Cytotoxicity Assays Method C, HCT-8; format: cell-based; details: Homo sapiens, HCT-8, 72 h, read-out: IC50 HCT-8
[11] = tested on: prostate cancer (PC-3); experiment: Cytotoxicity Assays Method C, PC-3; format: cell-based; details: for IC50: read-out: IC50 PC-3; for activity against the androgen-insensitive prostate cancer cell line PC-3 (in words): PC-3, summary of Table 3
[12] = tested on: MCF-7; experiment: Cytotoxicity Assays Method A (alamarBlue anti-proliferative assay), MCF-7; format: cell-based; details: for IC50 / CC50: Homo sapiens; for IC50: MCF7, 72 h, read-out: IC50 (50% Inhibition Concentration); for CC50: MCF7, read-out: LC50 (50% Lethal Concentration); for CC50 / TGI (Total growth Inhibition): MCF-7, 72-hour incubation, alamarBlue; for cytotoxicity against MCF-7 (in words): MCF-7, summary of Table 1
From the text: as §1, §2, §3, §4, §5, §6, §7, §8, §9, §10

[13] = Water solubility; format: physicochemical; details: water; in H2O
[14] = 96 h, HL-60, MTT, treatment for 4 days
[15] = HCT-8, 50% reduction in cell number after 72 hr of incubation

Compound	IC50 ([1]; 72 h)	IC50 [2]	CC50 [2]	TGI (Total growth Inhibition) [2]	IC50 ([3]; Homo sapiens, A549, 72 h)	LC50 (50% lethal concentration) at 72 h [4]	TGI (Total growth Inhibition) [5]	IC50 [5]	IC50 ([6]; Homo sapiens, KBVIN, 72 h)	cytotoxicity against Hep3B (in words) [7]	TGI (Total growth Inhibition) [7]	IC50 [7]	CC50 [7]	TGI (Total growth Inhibition) [8]	IC50 [8]	LC50 (50% lethal concentration) [8]	IC50 ([9]; HL-60, 96 h)	IC50 [10]	IC50 ([11]; 72 h)	IC50 [9, 14]	other results
O=C(O)CCC(=O)OCc1cc2c(s1)C(=O)c1sccc1C2=O [IIa-1, Mono-[1-(4,8-dioxo-4,8-dihydrobenzo[1,2-b:5,4-b′]dithiophen-2-yl)-methyl]succinate]	2020 nM	810 nM	3500 nM	1.7 µM	4030 nM	34 µM	19 µM	10 µM	4470 nM	significant activity	5.1 µM	2800 nM	9.2 µM	22 µM	11 µM	45 µM	470 nM	4030 nM	1350 nM	–	IC50 [12]: 3400 nM; CC50 [12]: 14 µM; TGI (Total growth Inhibition) [12]: 6.9 µM; cytotoxicity against MCF-7 (in words) [12]: significant activity
CC(OC(=O)CCC(=O)O)c1cc2c(s1)C(=O)c1sccc1C2=O (stereo not shown) [IIb-1, Mono-[1-(4,8-dioxo-4,8-dihydrobenzo[1,2-b:5,4-b′]dithiophen-2-yl)-ethyl]succinate]	470 nM	640 nM	2100 nM	1.2 µM	580 nM	89 µM	31 µM	11 µM	250 nM	significant activity	1.8 µM	1100 nM	2.9 µM	2.0 µM	4.3 µM	89 µM	260 nM	910 nM	220 nM	–	activity against the MDR cell line KB-VIN (in words) [6]: potent activity; activity against the androgen-insensitive prostate cancer cell line PC-3 (in words) [11]: potent activity; IC50 [12]: 820 nM; CC50 [12]: 27 µM; TGI (Total growth Inhibition) [12]: 4.7 µM; cytotoxicity against MCF-7 (in words) [12]: significant activity
CC(OCC(=O)O)c1cc2c(s1)C(=O)c1ccsc1C2=O (stereo not shown) [IX, 1-(4,8-Dioxo-4,8-dihydroxybenzo[1,2-b:4,5-b′]-dithiophen-2-yl-ethoxy)-acetic acid]	–	–	–	–	–	–	–	–	–	–	–	–	–	–	–	–	–	–	–	2580 nM	IC50 ([1]; KB, 50% reduction in cell number after 72 hr of incubation): 19800 nM; IC50 ([3]; A549, 50% reduction in cell number after 72 hr of incubation): 2600 nM; IC50 [6]: 18200 nM; IC50 [10, 15]: 240 nM; IC50 ([11]; PC-3, 50% reduction in cell number after 72 hr of incubation): 2510 nM
CC(OC(=O)CCCC(=O)O)c1cc2c(s1)C(=O)c1ccsc1C2=O (stereo not shown) [VII-2, Mono-[1-(4,8-dioxo-4,8-dihydroxybenzo[1,2-b;4,5-b′]dithiophen-2-yl)-ethyl]pentanedioate]	80 nM	–	–	–	510 nM	–	–	–	–	–	–	–	–	–	–	–	–	480 nM	60 nM	280 nM	IC50 [6]: 240 nM; activity against the MDR cell line KB-VIN (in words) [6]: potent activity; activity against the androgen-insensitive prostate cancer cell line PC-3 (in words) [11]: potent activity
CN(C)CCNC(=O)c1cc2c(s1)C(=O)c1ccsc1C2=O [XV-2-H3PO4, 4,8-dioxo-4,8-dihydrobenzo[1,2-b;4,5-b′]dithiophene-2-carboxylate-(2-dimethyl-aminoethyl)-amide phosphoric acid salt]	–	–	–	–	–	–	–	–	10 nM	–	–	–	–	–	–	–	–	–	–	50 nM	IC50 ([1]; 72 h, KB, 50% reduction in cell number after 72 hr of incubation): 60 nM; IC50 ([3]; Homo sapiens, A549, 72 h, A549, 50% reduction in cell number after 72 hr of incubation): 10 nM; cytotoxicity against HL-60 (in words) ([9]; HL-60, summary of Table 2): the most potent one; solubility [13]: ≥ 4000 µg/mL; IC50 [10, 15]: 10 nM; IC50 ([11]; 72 h, PC-3, 50% reduction in cell number after 72 hr of incubation): 10 nM
